Results reported in PubChem BioAssay (NCI).
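Grown in 96-well plates, cells were treated for 48 hours with each compound at five concentrations. Insufficient inhibition: endpoint recorded as highest concentration tested. GI50 is the concentration that inhibits growth by half. TGI marks complete inhibition of growth.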

How the values were obtained:
Assay in all cases: DTP human tumour cell line panel, 48 h
[1] = tested on: 786-0 renal
[2] = tested on: A498 renal
[3] = tested on: A549 NSCLC
[4] = tested on: ACHN renal
[5] = tested on: BT-549 breast
[6] = tested on: CAKI-1 renal
[7] = tested on: CCRF-CEM leukemia
[8] = tested on: COLO 205 colon
[9] = tested on: DU-145 prostate
[10] = tested on: EKVX NSCLC
[11] = tested on: HCC-2998 colon
[12] = tested on: HCT-116 colon
[13] = tested on: HCT-15 colon
[14] = tested on: HL-60(TB) leukemia
[15] = tested on: HOP-62 NSCLC
[16] = tested on: HOP-92 NSCLC
[17] = tested on: HS 578T breast
[18] = tested on: HT29 colon
[19] = tested on: IGROV1 ovarian
[20] = tested on: K-562 leukemia
[21] = tested on: KM12 colon
[22] = tested on: LOX IMVI melanoma
[23] = tested on: M14 melanoma
[24] = tested on: MALME-3M melanoma
[25] = tested on: MCF7 breast
[26] = tested on: MDA-MB-435
[27] = tested on: MDA-MB-468 breast
[28] = tested on: MOLT-4 leukemia
[29] = tested on: NCI-H226 lung
[30] = tested on: NCI-H23 lung
[31] = tested on: NCI-H460 lung
[32] = tested on: NCI-H522 lung
[33] = tested on: NCI/ADR-RES ovarian
[34] = tested on: OVCAR-3 ovarian
[35] = tested on: OVCAR-4 ovarian
[36] = tested on: OVCAR-5 ovarian
[37] = tested on: OVCAR-8 ovarian
[38] = tested on: PC-3 prostate
[39] = tested on: RPMI-8226 leukemia
[40] = tested on: RXF 393 renal
[41] = tested on: SF-268 CNS
[42] = tested on: SF-295 CNS
[43] = tested on: SF-539 CNS
[44] = tested on: SK-MEL-28 melanoma
[45] = tested on: SK-MEL-5 melanoma
[46] = tested on: SK-OV-3 ovarian
[47] = tested on: SN12C renal
[48] = tested on: SNB-19 CNS
[49] = tested on: SR leukemia
[50] = tested on: SW-620 colon
[51] = tested on: T-47D breast
[52] = tested on: TK-10 renal
[53] = tested on: U251 CNS
[54] = tested on: UACC-257 melanoma
[55] = tested on: UACC-62 melanoma

With `O=C1Nc2ccc(F)cc2/C1=C/c1cccc(OCc2ccccn2)c1` the GI50 [1] was 15 µM, the TGI [1] was 29.7 µM and the GI50 [2] was 54.3 µM. For the same compound, the TGI [2] was greater than 100 µM, the GI50 [3] was 18.9 µM and the TGI [3] was 59.9 µM. The GI50 [4] was 16.4 µM, the TGI [4] was 33.5 µM and the GI50 [5] was 15 µM. For the same compound, the TGI [5] was 30.1 µM, the GI50 [6] was 19.6 µM and the TGI [6] was 55.5 µM. The GI50 [7] was 25.9 µM, the TGI [7] was 71.8 µM and the GI50 [8] was 16.3 µM. For the same compound, the TGI [8] was 31 µM, the GI50 [9] was 18.2 µM and the TGI [9] was 33.5 µM. The GI50 [10] was 13 µM, the TGI [10] was 26.9 µM and the GI50 [11] was 16.3 µM. The TGI [11] was 30.3 µM, the GI50 [12] was 13.7 µM and the TGI [12] was 28.5 µM. It also gave a GI50 [13] of 16.5 µM, a TGI [13] of 34.4 µM and a GI50 [14] of 16.4 µM. For the same compound, the TGI [14] was 39.3 µM, the GI50 [15] was 14.4 µM and the TGI [15] was 30.8 µM. The GI50 [16] was 11.3 µM, the TGI [16] was 36.3 µM and the GI50 [17] was 17.6 µM. The TGI [17] was 63.3 µM, the GI50 [18] was 17.5 µM and the TGI [18] was 34.7 µM. It also gave a GI50 [19] of 17 µM, a TGI [19] of 36.2 µM and a GI50 [20] of 17.5 µM. The TGI [20] was 57.3 µM, the GI50 [21] was 19 µM and the TGI [21] was 37.3 µM. The GI50 [22] was 14.9 µM, the TGI [22] was 29 µM and the GI50 [23] was 15.7 µM. For the same compound, the TGI [23] was 31.5 µM, the GI50 [24] was 17.5 µM and the TGI [24] was 40.1 µM. The GI50 [25] was 12.1 µM, the TGI [25] was 26.4 µM and the GI50 [26] was 18.5 µM. For the same compound, the TGI [26] was 36.6 µM, the GI50 [27] was 14.2 µM and the TGI [27] was 29.3 µM. It also gave a GI50 [28] of 17.5 µM, a TGI [28] of 40 µM and a GI50 [29] of 15 µM. The TGI [29] was 29.9 µM, the GI50 [30] was 15 µM and the TGI [30] was 28.8 µM. The GI50 [31] was 19.8 µM, the TGI [31] was 44.4 µM and the GI50 [32] was 15.9 µM. The TGI [32] was 33 µM, the GI50 [33] was 16.8 µM and the TGI [33] was 39.3 µM. The GI50 [34] was 15.2 µM, the TGI [34] was 32.4 µM and the GI50 [35] was 22 µM. The TGI [35] was 63.3 µM, the GI50 [36] was 16 µM and the TGI [36] was 31 µM. It also gave a GI50 [37] of 16.1 µM, a TGI [37] of 31.7 µM and a GI50 [38] of 18.7 µM. The TGI [38] was 48.7 µM, the GI50 [39] was 17.3 µM and the TGI [39] was 48 µM. It also gave a GI50 [40] of 13.3 µM, a TGI [40] of 26.4 µM and a GI50 [41] of 17.1 µM. For the same compound, the TGI [41] was 39.3 µM, the GI50 [42] was 16 µM and the TGI [42] was 30.3 µM. It also gave a GI50 [43] of 16.3 µM, a TGI [43] of 30.4 µM and a GI50 [44] of 18.4 µM. The TGI [44] was 37.1 µM, the GI50 [45] was 16.6 µM and the TGI [45] was 30.5 µM. It also gave a GI50 [46] of 18.6 µM, a TGI [46] of 50 µM and a GI50 [47] of 16.8 µM. The TGI [47] was 34.4 µM, the GI50 [48] was 17.2 µM and the TGI [48] was 33.2 µM. The GI50 [49] was 16.4 µM, the TGI [49] was 42.6 µM and the GI50 [50] was 17.2 µM. The TGI [50] was 36 µM, the GI50 [51] was 15 µM and the TGI [51] was 34 µM. The GI50 [52] was 18.1 µM, the TGI [52] was 32.5 µM and the GI50 [53] was 15.2 µM. For the same compound, the TGI [53] was 33.3 µM, the GI50 [54] was 14.4 µM and the TGI [54] was 30.1 µM. For the same compound, the GI50 [55] was 13.6 µM and the TGI [55] was 27.7 µM.
